Results from patent EP4361136A1, “COMPOUND FOR THE TREATMENT OF GLIOBLASTOMA” (Universidad De Córdoba, priority 2021, dated 2022).

Legend:
[1] = system: glioblastoma (GBM) cells; assay: In vitro functional assays in glioblastoma cells (proliferation, migration, tumoursphere formation, VEGF secretion, apoptosis, marker expression); type: cell-based, human
Description: The proliferation assay (see below) was used to develop a dose-response and IC50 determination of pladienolide-b in glioblastoma cells. The selected doses of pladienolide-b, based on previously reported in vitro studies, were 10^-9 , 10^-7 and 10^-5 M measured 48 h after administration of the SF3B1 inhibitor in glioblastoma cell lines and patient-derived primary glioblastoma cell culture. Least squares regression was used as a method of adjustment to the IC50 determination.
As described above, cell proliferation and migration in response to pladienolide-b treatment were analyzed using the alamar blue assay (3,000 cells/well for cell lines and 10,000 cells/well for primary cell cultures; Biosource International, # BUF012B) and the wound healing technique (150,000 U-118 MG cells/well), respectively. For the migration assay, U-118 MG cells cultured at confluence were serum deprived for 24 h to achieve cell synchronization and then wounded with a sterile 200 µl pipette tip. Wells were replaced and cells were incubated for 6 h and 24 h with medium supplemented without FBS. Wound healing was compared to the area immediately after wounding. […]
The VEGF human ELISA kit (ThermoFisher Scientific, no. KHG0112) was used to quantify VEGF secretion in response to pladienolide-b in glioblastoma cell lines, following the manufacturer's instructions. […]

[2] = system: U-87 MG cells; assay: Preclinical xenograft GBM mouse model, intratumoral injection; type: in vivo, mice
Description: A preclinical xenograft mouse model was developed to test pladienolide-b in vivo. Five-week-old ATHYMFoxn1nu/nu mice (n = 6; Janvier-Labs) were subcutaneously injected with 3×10^6 of U-87 MG cells in both flanks [in 100 µl of basal membrane extract (Trevigen, # 3432-010-01)]. Once the tumour was clearly measurable (10 days after cell inoculation), each mouse received an intratumour injection with 50 µl of pladienolide-b (10^-7 M) in one flank and vehicle (1x DPBS, Sigma-Aldrich, # D1408) used as a control in another flank. Tumour growth was monitored every 2 days using a digital caliper. 20 days after injection, mice were sacrificed and each tumour was dissected, fixed, and sectioned for histopathological examination after staining with haematoxylin and eosin. Examination of the number of mitoses, vascular proliferation and necrosis was performed by experienced pathologists. Additional tumour pieces were in liquid nitrogen until RNA extraction using Trizol reagent and protein extraction using SDS-DTT buffer, as previously reported. One individual was assessed by micro-CT imaging using SkyScan1176 Bruker and a software environment to show the location of the tumour in vivo prior to dissection. 2D analysis along with 3D image rendering was performed using VolView 3.4 software (KitWare Inc). […]

SMILES: CC[C@H](O)[C@@H](C)[C@H]1O[C@@H]1C[C@H](C)/C=C/C=C(\C)[C@H]1OC(=O)C[C@H](O)CC[C@@](C)(O)[C@@H](OC(C)=O)/C=C/[C@@H]1C [pladienolide-b, [(2 S, 3 S, 4 E , 6 S , 7 R , 10 R ) -7,10-dihydroxy-2 - [(2 E , 4 E, 6 S ) -7 - [(2 R , 3 R ) -3 - [(2 R , 3 S ) -3-hydroxypentan-2-yl]oxiran-2-yl] -6-methylhepta-2,4-dien-2-yl] -3,7-dimethyl-12-oxo-1-oxazacyclododec-4-en-6-yl] acetate]
- critical functional parameters of aggressiveness and key markers of tumour development/progression/aggressiveness ([1]; 10^-7 M, compared to control conditions, U-87 MG, U-118 MG and patient-derived primary GBM cells): decreases
- several functional parameters in vitro ([1]; summary statement (Figure 4)): reduced
- glioblastoma (GBM) progression and vascularization ([2]; U-87 MG xenograft, intratumour injection of 50 µl (10^-7 M) versus vehicle-treated flank): alters
- several functional parameters in vivo ([2]; in vivo, summary statement (Figure 5)): reduced
